Experimental findings from ChEMBL document CHEMBL5291721, “A preclinical secondary pharmacology resource illuminates target-adverse drug reaction associations of marketed drugs” (Nat Commun, 2023) are described below.

The target of test [1] is T1, Alpha-1A adrenergic receptor (Homo sapiens, UniProt P35348).
T1 sequence (P35348 whole entry): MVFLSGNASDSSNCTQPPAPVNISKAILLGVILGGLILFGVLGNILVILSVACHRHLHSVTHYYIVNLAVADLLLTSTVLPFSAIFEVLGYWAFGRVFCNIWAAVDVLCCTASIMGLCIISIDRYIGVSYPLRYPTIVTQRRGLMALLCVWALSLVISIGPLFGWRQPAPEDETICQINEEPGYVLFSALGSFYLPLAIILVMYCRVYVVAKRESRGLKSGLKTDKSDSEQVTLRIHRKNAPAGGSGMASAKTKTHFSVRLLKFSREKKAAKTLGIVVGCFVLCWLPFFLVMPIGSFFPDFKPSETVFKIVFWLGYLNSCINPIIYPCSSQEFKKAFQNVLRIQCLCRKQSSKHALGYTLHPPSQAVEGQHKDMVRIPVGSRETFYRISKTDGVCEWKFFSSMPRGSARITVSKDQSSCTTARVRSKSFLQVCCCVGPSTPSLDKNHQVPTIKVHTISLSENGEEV
It is filed as functional, cell-based.

In test [2] the target is Sodium-dependent dopamine transporter (Homo sapiens, UniProt Q01959).
Sequence of Sodium-dependent dopamine transporter (Q01959 whole entry): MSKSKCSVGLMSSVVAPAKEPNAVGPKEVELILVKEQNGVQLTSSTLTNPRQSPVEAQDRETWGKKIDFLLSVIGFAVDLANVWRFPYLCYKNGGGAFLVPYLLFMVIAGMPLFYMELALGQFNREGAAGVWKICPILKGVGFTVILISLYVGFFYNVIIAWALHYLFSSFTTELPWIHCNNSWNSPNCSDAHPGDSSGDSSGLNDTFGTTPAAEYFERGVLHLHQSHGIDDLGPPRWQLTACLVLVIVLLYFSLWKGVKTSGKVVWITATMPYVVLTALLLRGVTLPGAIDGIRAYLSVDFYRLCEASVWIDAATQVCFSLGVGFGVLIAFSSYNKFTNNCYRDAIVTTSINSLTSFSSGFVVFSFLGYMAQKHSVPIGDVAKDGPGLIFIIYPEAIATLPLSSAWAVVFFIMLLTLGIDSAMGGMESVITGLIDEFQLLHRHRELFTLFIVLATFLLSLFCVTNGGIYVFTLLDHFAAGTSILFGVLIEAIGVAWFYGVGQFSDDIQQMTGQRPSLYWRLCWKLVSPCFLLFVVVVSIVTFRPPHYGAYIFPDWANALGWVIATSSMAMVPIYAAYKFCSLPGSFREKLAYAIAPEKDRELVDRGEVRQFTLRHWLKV
Test [3] deals with T2, Amine oxidase [flavin-containing] A (Homo sapiens, UniProt P21397).
T2 sequence (P21397 whole entry): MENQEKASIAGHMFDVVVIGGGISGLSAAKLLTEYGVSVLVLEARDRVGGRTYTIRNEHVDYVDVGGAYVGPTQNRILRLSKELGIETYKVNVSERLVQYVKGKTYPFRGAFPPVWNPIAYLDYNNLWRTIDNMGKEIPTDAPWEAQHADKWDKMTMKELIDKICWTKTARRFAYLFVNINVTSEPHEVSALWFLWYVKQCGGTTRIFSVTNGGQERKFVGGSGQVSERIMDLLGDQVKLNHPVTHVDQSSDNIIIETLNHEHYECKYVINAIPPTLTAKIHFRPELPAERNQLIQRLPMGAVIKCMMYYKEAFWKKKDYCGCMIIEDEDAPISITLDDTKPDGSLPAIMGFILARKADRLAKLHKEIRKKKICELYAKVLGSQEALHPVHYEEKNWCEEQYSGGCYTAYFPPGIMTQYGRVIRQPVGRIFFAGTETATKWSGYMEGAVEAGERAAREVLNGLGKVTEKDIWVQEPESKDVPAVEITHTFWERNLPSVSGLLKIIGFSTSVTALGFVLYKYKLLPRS
Format: functional.

The target of test [4] is Acetylcholinesterase (Homo sapiens, UniProt P22303). It is filed as functional.
Sequence of Acetylcholinesterase (P22303 whole entry): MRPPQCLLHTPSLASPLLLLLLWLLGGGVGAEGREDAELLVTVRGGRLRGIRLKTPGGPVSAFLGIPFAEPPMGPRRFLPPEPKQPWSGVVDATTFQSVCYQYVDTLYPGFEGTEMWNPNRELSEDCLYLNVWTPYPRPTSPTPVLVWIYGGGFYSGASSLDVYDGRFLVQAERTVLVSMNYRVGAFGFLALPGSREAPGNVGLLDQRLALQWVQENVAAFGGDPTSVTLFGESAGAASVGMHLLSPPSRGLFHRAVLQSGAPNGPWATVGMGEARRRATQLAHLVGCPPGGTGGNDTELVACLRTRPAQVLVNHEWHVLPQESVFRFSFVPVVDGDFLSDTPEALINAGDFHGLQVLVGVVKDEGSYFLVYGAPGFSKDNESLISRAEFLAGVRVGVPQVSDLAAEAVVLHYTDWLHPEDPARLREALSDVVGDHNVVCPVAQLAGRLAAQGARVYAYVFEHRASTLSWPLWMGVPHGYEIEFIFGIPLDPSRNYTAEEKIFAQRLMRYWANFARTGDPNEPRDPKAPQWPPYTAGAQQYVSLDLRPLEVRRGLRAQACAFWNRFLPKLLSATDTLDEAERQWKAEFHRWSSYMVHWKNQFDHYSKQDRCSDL
For test [5], the target named is Histamine H1 receptor (Homo sapiens, UniProt P35367).
Sequence of Histamine H1 receptor (P35367 whole entry): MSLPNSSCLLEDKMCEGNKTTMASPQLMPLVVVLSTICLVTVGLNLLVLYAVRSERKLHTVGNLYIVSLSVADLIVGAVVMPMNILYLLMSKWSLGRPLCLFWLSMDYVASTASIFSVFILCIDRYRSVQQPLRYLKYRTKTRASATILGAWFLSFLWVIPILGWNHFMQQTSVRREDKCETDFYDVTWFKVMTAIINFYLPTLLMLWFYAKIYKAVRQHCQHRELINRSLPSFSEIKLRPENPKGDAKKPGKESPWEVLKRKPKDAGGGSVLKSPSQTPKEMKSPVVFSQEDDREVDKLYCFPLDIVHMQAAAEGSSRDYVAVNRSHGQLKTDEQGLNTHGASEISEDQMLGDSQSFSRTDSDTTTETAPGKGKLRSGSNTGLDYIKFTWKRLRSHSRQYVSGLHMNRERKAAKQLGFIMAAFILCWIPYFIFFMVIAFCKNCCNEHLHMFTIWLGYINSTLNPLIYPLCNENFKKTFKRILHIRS
Test [6] concerns the target T3, Glucocorticoid receptor (Homo sapiens, UniProt P04150).
T3 sequence (P04150 whole entry): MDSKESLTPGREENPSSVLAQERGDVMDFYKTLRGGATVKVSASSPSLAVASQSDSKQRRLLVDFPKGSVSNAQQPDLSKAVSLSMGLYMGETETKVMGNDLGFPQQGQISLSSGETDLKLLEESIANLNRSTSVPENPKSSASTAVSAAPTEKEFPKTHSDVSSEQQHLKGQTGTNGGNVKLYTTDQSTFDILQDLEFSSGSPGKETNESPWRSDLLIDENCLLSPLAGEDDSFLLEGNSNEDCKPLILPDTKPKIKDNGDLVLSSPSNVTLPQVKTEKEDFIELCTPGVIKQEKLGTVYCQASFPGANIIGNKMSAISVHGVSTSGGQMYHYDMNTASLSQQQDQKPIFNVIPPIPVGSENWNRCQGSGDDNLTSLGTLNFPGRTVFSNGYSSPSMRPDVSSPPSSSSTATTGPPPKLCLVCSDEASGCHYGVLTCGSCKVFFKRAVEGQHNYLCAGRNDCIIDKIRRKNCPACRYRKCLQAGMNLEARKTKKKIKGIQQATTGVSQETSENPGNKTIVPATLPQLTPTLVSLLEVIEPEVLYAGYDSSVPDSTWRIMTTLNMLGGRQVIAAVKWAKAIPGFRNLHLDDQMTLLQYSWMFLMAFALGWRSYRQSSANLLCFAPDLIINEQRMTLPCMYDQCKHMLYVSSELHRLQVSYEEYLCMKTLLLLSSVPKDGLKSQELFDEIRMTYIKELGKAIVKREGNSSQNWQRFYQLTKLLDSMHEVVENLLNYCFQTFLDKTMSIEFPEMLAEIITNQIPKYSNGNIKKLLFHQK

For test [7], the target named is Muscarinic acetylcholine receptor M3 (Homo sapiens, UniProt P20309).
Sequence of Muscarinic acetylcholine receptor M3 (P20309 whole entry): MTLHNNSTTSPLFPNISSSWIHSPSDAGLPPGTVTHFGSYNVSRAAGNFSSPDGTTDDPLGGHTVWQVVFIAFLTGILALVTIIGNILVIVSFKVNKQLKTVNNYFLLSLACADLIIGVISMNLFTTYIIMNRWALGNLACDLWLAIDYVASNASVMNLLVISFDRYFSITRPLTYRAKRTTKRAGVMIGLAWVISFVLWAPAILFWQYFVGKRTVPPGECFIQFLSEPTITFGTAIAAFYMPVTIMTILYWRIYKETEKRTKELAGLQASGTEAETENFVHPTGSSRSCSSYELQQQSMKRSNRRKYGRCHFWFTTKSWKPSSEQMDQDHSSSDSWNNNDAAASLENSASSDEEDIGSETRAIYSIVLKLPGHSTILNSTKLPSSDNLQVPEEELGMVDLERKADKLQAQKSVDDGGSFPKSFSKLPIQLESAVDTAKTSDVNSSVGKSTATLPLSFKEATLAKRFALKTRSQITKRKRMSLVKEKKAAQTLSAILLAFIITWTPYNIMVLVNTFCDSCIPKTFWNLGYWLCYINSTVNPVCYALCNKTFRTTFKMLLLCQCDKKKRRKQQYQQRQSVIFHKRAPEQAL
Test [8] concerns the target T1, Alpha-1A adrenergic receptor. It is filed as functional, cell-based. This is another data set of the same source.
The target of test [9] is T4, 5-hydroxytryptamine receptor 2A (Homo sapiens, UniProt P28223). It is filed as functional, cell-based.
T4 sequence (P28223 whole entry): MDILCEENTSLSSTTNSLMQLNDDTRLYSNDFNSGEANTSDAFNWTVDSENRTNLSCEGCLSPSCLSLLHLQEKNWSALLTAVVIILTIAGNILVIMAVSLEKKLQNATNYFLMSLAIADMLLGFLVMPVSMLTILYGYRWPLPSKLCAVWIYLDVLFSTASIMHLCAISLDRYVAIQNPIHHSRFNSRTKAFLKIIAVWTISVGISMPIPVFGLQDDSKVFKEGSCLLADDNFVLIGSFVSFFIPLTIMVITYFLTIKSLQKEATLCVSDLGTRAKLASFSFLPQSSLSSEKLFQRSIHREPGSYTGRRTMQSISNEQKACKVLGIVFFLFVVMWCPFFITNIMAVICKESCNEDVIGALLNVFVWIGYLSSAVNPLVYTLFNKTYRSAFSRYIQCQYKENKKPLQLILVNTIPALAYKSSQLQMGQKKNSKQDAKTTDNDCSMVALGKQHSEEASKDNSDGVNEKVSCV
The target in test [10] is T4, 5-hydroxytryptamine receptor 2A. It is filed as functional, cell-based. This is another data set of the same source.
Test [11] addresses T1, Alpha-1A adrenergic receptor. Format: functional, cell-based. This is another data set of the same source.
The target of test [12] is Histamine H2 receptor (Homo sapiens, UniProt P25021). It is filed as functional, cell-based.
Sequence of Histamine H2 receptor (P25021 whole entry): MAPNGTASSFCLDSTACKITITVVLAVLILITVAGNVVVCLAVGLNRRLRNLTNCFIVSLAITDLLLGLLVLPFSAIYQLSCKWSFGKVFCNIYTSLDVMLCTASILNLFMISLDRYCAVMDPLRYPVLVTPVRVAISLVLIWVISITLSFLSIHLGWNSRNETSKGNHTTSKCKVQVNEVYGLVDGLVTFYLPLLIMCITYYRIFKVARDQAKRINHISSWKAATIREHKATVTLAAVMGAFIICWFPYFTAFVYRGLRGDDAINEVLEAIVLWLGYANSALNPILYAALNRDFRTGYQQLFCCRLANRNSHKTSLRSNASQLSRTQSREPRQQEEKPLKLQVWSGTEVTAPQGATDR
Test [13] has as its target T5, Cannabinoid receptor 1 (Homo sapiens, UniProt P21554). It is filed as functional, cell-based.
Test [14] addresses T5, Cannabinoid receptor 1. Format: functional, cell-based. This is another data set of the same source.
Also: assay procedure not described here.

T5 sequence (P21554 whole entry): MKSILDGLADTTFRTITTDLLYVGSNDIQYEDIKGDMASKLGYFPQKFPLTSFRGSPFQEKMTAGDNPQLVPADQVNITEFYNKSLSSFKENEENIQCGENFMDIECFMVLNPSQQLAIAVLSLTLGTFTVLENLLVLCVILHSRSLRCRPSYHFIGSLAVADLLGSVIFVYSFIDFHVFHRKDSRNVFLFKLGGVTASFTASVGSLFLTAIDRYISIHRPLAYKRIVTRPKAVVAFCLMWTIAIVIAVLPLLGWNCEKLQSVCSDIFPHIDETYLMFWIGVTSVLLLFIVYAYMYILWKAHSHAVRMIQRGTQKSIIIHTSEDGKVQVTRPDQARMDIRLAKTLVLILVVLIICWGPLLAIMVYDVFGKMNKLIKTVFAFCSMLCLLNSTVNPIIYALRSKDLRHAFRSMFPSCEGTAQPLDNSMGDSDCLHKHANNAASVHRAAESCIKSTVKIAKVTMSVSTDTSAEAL

For orientation: AC50 means the midpoint of the concentration-response curve, whichever way the signal moves. A lower AC50 goes with greater potency. With `CC(=O)OC[C@H]1O[C@@H](n2ccc(=O)[nH]c2=O)[C@H](OC(C)=O)[C@@H]1OC(C)=O` [URIDINE TRIACETATE], the AC50 in test [1], in test [2], in [3] and in test [4] was above 30 µM each time.
As for `COc1ccc2c(c1)C(=O)N(CCc1ccc(S(=O)(=O)NC(=O)NC3CCCCC3)cc1)C(=O)C2(C)C` [GLIQUIDONE], the AC50 is above 30 µM in test [5]; above 30 µM in test [6]; above 30 µM in [7]; above 30 µM in test [8]; above 30 µM in [9]; 13 µM in test [10]. Moreover, the AC50 in [11] and in [12] was above 30 µM each time.
For the compound `CCC(=O)c1c(O)cc(O)cc1O` [FLOPROPIONE], the AC50 in test [1], in test [2], in test [3] and in [4] was above 30 µM each time.
With `Cc1c(-c2ccccc2)oc2c(C(=O)OCCN3CCCCC3)cccc2c1=O` [FLAVOXATE], the concentration at half-maximal activity (AC50) in test [1] was above 30 µM; in test [2], above 30 µM; in test [3], above 30 µM; in test [4], 17.6 µM.
For the compound `CC(=O)Oc1c(C)cc(OCC(O)CNC(C)C)c(C)c1C` (centres undefined) [METIPRANOLOL], the AC50 in [1], in [2], in test [3] and in [4] was above 30 µM each time.
`O=C1CC[C@@]2(O)[C@H]3Cc4ccc(O)c5c4[C@@]2(CCN3CC2CC2)[C@H]1O5` [NALTREXONE]: the concentration at half-maximal activity (AC50) in [1], in test [2], in test [3] and in [4] was above 30 µM each time.
With `O=C1[C@H](CC[C@H](O)c2ccc(F)cc2)[C@@H](c2ccc(O)cc2)N1c1ccc(F)cc1` [EZETIMIBE], the concentration at half-maximal activity (AC50) in test [1] is 9.94 µM; in test [2], 19.5 µM; in test [3] it was above 30 µM; in test [4], above 30 µM.
For the compound `CCO/N=C(\C(=O)N[C@@H]1C(=O)N2C(C(=O)[O-])=C(Sc3nc(-c4cc[n+](C)cc4)cs3)CS[C@H]12)c1nsc(N)n1` [CEFTAROLINE], the AC50 in test [1], in [2], in test [3] and in test [4] was above 30 µM in each case.
Turning to `C[N+](C)(C)CCCCCCCCCC[N+](C)(C)C` [DECAMETHONIUM], the AC50 in test [1] was above 30 µM; in test [2] it was above 30 µM; in test [3], above 30 µM; in [4] it was 9.15 µM.
Consider `Cc1cc2c(cc1CC(=O)c1sccc1S(=O)(=O)Nc1onc(C)c1Cl)OCO2` [SITAXENTAN], for which the AC50 in [2], in [3] and in test [4] was above 30 µM in each case.
Take `CCC(=O)O[C@H]1[C@H](O[C@@H]2[C@@H](C)[C@H](O[C@H]3C[C@@](C)(OC)[C@@H](O)[C@H](C)O3)[C@@H](C)C(=O)O[C@H](CC)[C@@](C)(O)[C@H](O)[C@@H](C)C(=O)[C@H](C)C[C@@]2(C)O)O[C@H](C)C[C@@H]1N(C)C` [ERYTHROMYCIN PROPIONATE]: the results for the AC50 in [2], in test [3] and in test [4] were 29.1 µM, above 30 µM and above 30 µM, respectively.
Take `CNC(=O)c1cc(Oc2ccc(NC(=O)Nc3ccc(Cl)c(C(F)(F)F)c3)cc2)ccn1` [SORAFENIB]: the AC50 in test [5], in [6], in test [7], in test [8], in [13] and in test [14] was above 30 µM each time. In addition, the AC50 in test [11] is 15 µM; in test [12] it was above 30 µM.
Consider `CC(O)CO` (centres undefined) [PROPYLENE GLYCOL], for which the AC50 in test [1], in test [2], in test [3] and in [4] was above 30 µM each time.
Turning to `O=C1c2ccccc2C(=O)C1C(=O)C(c1ccccc1)c1ccccc1` [DIPHENADIONE], the AC50 in test [1] is 4.95 µM; in [2], above 30 µM; in test [3], above 30 µM; in test [4], above 30 µM.
Turning to `OC[C@@H](O)[C@@H](O)[C@H](O)[C@H](O)CO` [MANNITOL], the AC50 in test [1], in [2], in test [3] and in test [4] was above 30 µM throughout.
For `Sc1ncnc2nc[nH]c12` [MERCAPTOPURINE ANHYDROUS], the AC50 in test [1], in [2], in test [3] and in [4] was above 30 µM each time.
`Cc1cc(O)cc(C)c1Cl` [CHLOROXYLENOL]: the AC50 in [2], in [3] and in test [4] was above 30 µM each time.
In the case of `Cc1ccc(O)c2ncccc12` [TILIQUINOL], the AC50 in test [1], in [2], in test [3] and in test [4] was above 30 µM throughout.
For the compound `CN(C)C(=O)Oc1ccc[n+](C)c1` [PYRIDOSTIGMINE], the AC50 in test [1], in test [2] and in [3] was above 30 µM throughout.
As for `CC(N/C(=N\C#N)Nc1ccncc1)C(C)(C)C` (centres undefined) [PINACIDIL ANHYDROUS], the AC50 in test [1], in test [2], in test [3] and in test [4] was above 30 µM in each case.
Consider `C#C[C@]1(O)CC[C@H]2[C@@H]3CCC4=CC(=O)CC[C@@H]4[C@H]3CC[C@@]21CC` [LEVONORGESTREL], for which the AC50 in test [1], in [2], in test [3] and in test [4] was above 30 µM in each case.
`CN1CCCC(CN2c3ccccc3Sc3ccccc32)C1` (centres undefined) [MEPAZINE]: the AC50 in test [1] is above 30 µM; in [2], 27.7 µM; in test [3] it was above 30 µM; in test [4], above 30 µM.
Take `C(=N\NC1=NCCN1)/c1c2ccccc2c(/C=N/NC2=NCCN2)c2ccccc12` [BISANTRENE]: the AC50 is above 30 µM in test [1], 9.57 µM in [2], above 30 µM in [3] and 3.88 µM in test [4].
Take `CCOC(=O)c1ccc(O)cc1` [ETHYLPARABEN]: the AC50 in [1], in [2], in [3] and in test [4] was above 30 µM throughout.
`CC1(C)O[C@@H]2C[C@H]3[C@@H]4C[C@H](F)C5=CC(=O)CC[C@]5(C)[C@H]4[C@@H](O)C[C@]3(C)[C@]2(C(=O)CO)O1` [FLURANDRENOLIDE]: the AC50 in [1], in test [2], in [3] and in test [4] was above 30 µM in each case.
